# Activity calls are given as the source filed them.
# Assays:
# [1] = tested on: Streptococcus sp. 'group A'; experiment: Streptococcus pyogenes SK(-)GAS viability under kanamycin – luminescence, BacTiterGlo, confirmation, counter-screen for streptokinase expression inhibitor project, dose response (AID 1900); format: functional, organism-based
# [2] = target: T1, Streptokinase A (Streptococcus pyogenes serotype M1, UniProt P10520); experiment: viability-normalized secreted streptokinase activity reduction – plasminogen activation absorbance, OD405, dose response (AID 1914); format: functional, Streptococcus pyogenes M1 GAS;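 further: secreted streptokinase activity via plasminogen activation per viability signal from cell pellet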
# T1 sequence (P10520 whole entry): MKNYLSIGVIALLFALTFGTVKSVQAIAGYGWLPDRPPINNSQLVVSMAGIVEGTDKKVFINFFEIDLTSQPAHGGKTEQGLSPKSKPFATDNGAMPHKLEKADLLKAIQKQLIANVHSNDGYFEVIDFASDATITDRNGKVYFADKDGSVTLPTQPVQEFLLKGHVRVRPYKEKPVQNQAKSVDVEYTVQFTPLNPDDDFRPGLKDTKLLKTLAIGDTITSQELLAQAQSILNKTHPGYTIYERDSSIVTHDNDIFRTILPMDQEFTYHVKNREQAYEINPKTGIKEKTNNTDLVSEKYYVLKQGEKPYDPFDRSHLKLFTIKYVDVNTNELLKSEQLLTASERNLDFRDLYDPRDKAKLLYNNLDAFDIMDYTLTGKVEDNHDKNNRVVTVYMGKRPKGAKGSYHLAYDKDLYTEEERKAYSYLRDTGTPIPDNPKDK
# [3] = tested on: Streptococcus; experiment: GAS UMAA2166 growth inhibition – luminescence, BacTiterGlo, counter-screen for streptokinase expression inhibitor project, dose response (AID 1915); format: functional, organism-based;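 further: potency for reduction of bacterial viability or growth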
# [4] = target: T2, Low molecular weight phosphotyrosine protein phosphatase (Homo sapiens, UniProt P24666); format: functional; conditions: read-out: IC50_Mean;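 further: Dose-response confirmation assay measuring inhibition of LMPTP enzyme activity by fluorescence intensity read-out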
# T2 sequence (P24666 whole entry): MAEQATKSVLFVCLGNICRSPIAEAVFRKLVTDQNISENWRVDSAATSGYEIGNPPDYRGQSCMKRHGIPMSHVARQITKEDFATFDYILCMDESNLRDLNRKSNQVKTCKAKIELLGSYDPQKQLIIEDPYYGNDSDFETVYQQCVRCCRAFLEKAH
# [5] = target: Glyceraldehyde-3-phosphate dehydrogenase (Homo sapiens, UniProt P04406)
# [6] = viability of uninfected HEp-2 cells – cell-based, HTS, cytotoxicity control for RSV inhibitor project, dose response (AID 2410); format: functional; conditions: human respiratory syncytial virus
# [7] = target: Peroxisome proliferator-activated receptor gamma/Nuclear receptor coactivator 2 (Homo sapiens, UniProt P37231); format: functional;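 further: agonist potency for raising coactivator recruitment to the receptor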
# [8] = target: Peroxisome proliferator-activated receptor gamma/Nuclear receptor coactivator 1 (Homo sapiens, UniProt P37231); format: functional;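 further: agonist potency as compounds enhance coactivator SRC-1 recruitment to PPARgamma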
# [9] = target: Peroxisome proliferator-activated receptor gamma/Nuclear receptor coactivator 3 (Homo sapiens, UniProt P37231); format: functional;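 further: agonist potency for raising coactivator recruitment to the receptor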
# [10] = target: Prothrombin (Homo sapiens, UniProt P00734); experiment: Thrombin 1536 HTS Dose Response Confirmation. [Related pubchem assays: 1046 (Thrombin 1536 HTS; hits were confirmed in this assay)]; format: functional
# [11] = Luminescence Cell-Based Dose Retest to Confirm Inhibitors of Cancer Stem Cells. [Related pubchem assays (depositor defined):AID2717, AID2721]; format: functional; conditions: Homo sapiens
# [12] = target: Mitogen-activated protein kinase 10 (Homo sapiens, UniProt P53779); experiment: Dose response biochemical screening assay for inhibitors of c-Jun N-Terminal Kinase 3 (JNK3). [Related pubchem assays: 746 ]
# [13] = target: Cytochrome P450 2C9 (Homo sapiens, UniProt P11712)
# [14] = target: Cytochrome P450 2C19 (Homo sapiens, UniProt P33261); experiment: Cytochrome panel assay with activity outcomes. Panel member name: p450-cyp2c19 Compounds with AC50 equal or less than 10 uM are considered active; format: functional; conditions: read-out: AC50
# [15] = target: T3, fMet-Leu-Phe receptor (Homo sapiens, UniProt P21462); experiment: formyl peptide receptor binders – dose response (AID 519); format: functional
# T3 sequence (P21462 whole entry): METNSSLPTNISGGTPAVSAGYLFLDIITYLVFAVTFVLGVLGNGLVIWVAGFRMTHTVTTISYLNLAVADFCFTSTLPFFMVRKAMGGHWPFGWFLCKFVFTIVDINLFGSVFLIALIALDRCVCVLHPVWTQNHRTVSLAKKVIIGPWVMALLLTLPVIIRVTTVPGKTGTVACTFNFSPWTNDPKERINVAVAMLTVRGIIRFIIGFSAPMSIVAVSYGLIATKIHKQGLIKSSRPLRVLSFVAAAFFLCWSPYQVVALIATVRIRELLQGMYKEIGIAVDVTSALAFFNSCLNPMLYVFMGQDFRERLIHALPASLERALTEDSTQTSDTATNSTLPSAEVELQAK
# [16] = target: Cytochrome P450 2D6 (Homo sapiens, UniProt P10635);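 further: CYP2D6 member of a cytochrome P450 panel assay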
# [17] = target: T4, Cytochrome P450 1A2 (Homo sapiens, UniProt P05177);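 further: PubChem cytochrome P450 panel assay, CYP1A2 panel member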
# T4 sequence (P05177 whole entry): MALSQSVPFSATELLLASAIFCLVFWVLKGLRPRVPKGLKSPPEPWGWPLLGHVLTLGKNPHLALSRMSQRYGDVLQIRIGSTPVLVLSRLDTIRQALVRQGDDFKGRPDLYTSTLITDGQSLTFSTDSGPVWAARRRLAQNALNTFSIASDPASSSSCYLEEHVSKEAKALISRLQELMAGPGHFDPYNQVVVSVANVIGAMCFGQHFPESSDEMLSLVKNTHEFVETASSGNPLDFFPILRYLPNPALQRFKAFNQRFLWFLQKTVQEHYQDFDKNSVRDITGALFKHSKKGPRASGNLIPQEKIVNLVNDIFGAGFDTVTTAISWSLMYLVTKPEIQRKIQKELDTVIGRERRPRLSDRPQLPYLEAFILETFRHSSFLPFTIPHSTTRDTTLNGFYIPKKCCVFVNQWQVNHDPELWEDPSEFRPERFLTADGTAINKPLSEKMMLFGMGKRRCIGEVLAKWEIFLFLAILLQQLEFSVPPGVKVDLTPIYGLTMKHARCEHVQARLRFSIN
# [18] = target: T5, Heat shock factor protein 1 (Mus musculus, UniProt P38532); experiment: enhancement of HSF1-driven luciferase signal – cell-based, NIH3T3, luminescence, dose retest, confirmation (AID 435004); format: functional;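 further: stress induced by proteasome inhibitor MG132 added 30 min after compound; luciferase reporter driven by HSF1 response element in NIH3T3 cells; actives raise luminescence as potentiators of the MG132 stress response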
# T5 sequence (P38532 whole entry): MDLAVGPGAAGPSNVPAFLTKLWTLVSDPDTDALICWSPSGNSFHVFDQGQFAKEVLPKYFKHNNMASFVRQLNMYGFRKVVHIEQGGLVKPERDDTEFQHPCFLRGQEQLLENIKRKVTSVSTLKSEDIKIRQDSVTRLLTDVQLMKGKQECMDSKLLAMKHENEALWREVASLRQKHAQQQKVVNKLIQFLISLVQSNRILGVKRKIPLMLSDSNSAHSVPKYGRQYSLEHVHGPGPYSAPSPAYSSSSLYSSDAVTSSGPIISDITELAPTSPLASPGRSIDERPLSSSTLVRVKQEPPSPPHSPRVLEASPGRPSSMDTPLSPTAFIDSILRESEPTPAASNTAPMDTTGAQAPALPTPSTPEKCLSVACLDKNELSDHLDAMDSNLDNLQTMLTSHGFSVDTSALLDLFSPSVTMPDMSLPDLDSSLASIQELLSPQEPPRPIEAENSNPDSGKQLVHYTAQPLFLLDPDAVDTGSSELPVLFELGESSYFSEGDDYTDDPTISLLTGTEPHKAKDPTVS
# [19] = HIV-1 Vif–A3G interaction blockers – biochemical, TR-FRET, GST-Vif 1-94, biotin-A3G peptide, dose response retest, primary screen (AID 1117319); format: functional;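 further: TR-FRET signal of purified GST-Vif binding a biotinylated A3G peptide; inhibitors lower the FRET signal by blocking Vif and A3G binding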
# [20] = target: T6, Protein skinhead-1 (Caenorhabditis elegans, UniProt P34707); format: functional
# T6 sequence (P34707 whole entry): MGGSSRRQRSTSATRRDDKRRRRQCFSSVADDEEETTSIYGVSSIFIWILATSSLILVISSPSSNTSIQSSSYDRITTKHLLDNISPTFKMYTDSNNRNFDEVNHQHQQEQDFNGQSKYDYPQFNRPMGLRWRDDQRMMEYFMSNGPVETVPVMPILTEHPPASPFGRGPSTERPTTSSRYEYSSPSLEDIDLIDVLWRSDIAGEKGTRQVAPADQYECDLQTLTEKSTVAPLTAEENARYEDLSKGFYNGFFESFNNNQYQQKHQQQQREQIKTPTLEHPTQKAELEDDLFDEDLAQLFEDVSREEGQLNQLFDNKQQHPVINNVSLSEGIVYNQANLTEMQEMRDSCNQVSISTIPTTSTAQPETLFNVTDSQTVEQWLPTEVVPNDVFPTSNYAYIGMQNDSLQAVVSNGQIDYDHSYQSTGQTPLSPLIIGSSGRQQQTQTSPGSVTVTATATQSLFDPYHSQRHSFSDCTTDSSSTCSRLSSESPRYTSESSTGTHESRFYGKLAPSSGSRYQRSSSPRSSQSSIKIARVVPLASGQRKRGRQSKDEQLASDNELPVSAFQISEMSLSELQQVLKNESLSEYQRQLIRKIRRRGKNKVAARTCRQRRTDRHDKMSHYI
# Chain of Peroxisome proliferator-activated receptor gamma/Nuclear receptor coactivator 2 (P37231 whole entry): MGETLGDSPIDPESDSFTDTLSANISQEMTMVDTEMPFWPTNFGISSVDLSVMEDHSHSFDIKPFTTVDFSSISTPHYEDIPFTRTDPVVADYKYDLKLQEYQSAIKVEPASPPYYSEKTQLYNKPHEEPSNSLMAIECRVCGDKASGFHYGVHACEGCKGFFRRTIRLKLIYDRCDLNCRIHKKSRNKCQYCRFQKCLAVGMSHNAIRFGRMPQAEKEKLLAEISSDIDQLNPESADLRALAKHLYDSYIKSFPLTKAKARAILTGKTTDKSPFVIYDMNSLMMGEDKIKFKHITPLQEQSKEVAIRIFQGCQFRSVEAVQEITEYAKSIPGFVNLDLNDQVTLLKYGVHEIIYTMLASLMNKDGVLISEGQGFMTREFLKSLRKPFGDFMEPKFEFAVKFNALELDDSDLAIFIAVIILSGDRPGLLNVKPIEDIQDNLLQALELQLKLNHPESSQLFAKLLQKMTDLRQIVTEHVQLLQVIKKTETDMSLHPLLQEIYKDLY
# Chain of Peroxisome proliferator-activated receptor gamma/Nuclear receptor coactivator 2 (Q15596 whole entry, further chain): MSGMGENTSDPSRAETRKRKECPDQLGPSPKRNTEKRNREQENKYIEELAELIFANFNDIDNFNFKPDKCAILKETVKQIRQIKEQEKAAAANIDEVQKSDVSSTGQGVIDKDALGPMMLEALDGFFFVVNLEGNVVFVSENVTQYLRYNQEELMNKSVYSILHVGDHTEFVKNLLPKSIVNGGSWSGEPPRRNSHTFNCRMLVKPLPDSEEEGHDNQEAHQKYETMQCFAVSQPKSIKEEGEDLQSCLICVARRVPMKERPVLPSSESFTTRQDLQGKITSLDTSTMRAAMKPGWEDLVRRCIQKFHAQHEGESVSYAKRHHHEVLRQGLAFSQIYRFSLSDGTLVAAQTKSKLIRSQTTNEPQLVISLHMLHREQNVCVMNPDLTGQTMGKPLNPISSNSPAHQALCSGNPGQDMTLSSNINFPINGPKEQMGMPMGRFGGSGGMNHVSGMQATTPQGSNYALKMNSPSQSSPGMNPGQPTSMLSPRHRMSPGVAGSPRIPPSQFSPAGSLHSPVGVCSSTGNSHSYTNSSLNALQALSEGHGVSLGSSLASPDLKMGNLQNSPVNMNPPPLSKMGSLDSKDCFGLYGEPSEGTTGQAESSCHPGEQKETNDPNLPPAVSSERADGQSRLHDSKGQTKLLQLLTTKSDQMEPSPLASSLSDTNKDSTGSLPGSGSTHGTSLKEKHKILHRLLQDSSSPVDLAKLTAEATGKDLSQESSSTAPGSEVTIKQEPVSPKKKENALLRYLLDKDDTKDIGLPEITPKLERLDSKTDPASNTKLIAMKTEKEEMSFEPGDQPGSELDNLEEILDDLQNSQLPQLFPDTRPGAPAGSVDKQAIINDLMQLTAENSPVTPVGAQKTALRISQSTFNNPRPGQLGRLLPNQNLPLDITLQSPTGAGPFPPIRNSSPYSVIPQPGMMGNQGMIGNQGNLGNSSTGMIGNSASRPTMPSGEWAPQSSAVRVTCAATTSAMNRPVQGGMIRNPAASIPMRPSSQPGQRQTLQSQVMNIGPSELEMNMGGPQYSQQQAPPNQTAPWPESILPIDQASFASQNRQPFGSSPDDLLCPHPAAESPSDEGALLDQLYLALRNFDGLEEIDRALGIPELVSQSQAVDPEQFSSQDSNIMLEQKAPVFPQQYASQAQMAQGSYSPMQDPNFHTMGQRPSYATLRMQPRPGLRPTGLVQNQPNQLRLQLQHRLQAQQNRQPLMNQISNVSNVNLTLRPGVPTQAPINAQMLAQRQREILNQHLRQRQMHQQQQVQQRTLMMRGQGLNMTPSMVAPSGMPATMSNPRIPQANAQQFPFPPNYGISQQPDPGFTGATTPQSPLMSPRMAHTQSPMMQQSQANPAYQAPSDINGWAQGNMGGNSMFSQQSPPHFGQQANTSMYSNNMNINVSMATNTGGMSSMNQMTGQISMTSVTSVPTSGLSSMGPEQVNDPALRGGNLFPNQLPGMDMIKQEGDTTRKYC
# Chain of Peroxisome proliferator-activated receptor gamma/Nuclear receptor coactivator 1 (P37231 whole entry): as the sequence (P37231 whole entry) above
# Chain of Peroxisome proliferator-activated receptor gamma/Nuclear receptor coactivator 1 (Q15788 whole entry, further chain): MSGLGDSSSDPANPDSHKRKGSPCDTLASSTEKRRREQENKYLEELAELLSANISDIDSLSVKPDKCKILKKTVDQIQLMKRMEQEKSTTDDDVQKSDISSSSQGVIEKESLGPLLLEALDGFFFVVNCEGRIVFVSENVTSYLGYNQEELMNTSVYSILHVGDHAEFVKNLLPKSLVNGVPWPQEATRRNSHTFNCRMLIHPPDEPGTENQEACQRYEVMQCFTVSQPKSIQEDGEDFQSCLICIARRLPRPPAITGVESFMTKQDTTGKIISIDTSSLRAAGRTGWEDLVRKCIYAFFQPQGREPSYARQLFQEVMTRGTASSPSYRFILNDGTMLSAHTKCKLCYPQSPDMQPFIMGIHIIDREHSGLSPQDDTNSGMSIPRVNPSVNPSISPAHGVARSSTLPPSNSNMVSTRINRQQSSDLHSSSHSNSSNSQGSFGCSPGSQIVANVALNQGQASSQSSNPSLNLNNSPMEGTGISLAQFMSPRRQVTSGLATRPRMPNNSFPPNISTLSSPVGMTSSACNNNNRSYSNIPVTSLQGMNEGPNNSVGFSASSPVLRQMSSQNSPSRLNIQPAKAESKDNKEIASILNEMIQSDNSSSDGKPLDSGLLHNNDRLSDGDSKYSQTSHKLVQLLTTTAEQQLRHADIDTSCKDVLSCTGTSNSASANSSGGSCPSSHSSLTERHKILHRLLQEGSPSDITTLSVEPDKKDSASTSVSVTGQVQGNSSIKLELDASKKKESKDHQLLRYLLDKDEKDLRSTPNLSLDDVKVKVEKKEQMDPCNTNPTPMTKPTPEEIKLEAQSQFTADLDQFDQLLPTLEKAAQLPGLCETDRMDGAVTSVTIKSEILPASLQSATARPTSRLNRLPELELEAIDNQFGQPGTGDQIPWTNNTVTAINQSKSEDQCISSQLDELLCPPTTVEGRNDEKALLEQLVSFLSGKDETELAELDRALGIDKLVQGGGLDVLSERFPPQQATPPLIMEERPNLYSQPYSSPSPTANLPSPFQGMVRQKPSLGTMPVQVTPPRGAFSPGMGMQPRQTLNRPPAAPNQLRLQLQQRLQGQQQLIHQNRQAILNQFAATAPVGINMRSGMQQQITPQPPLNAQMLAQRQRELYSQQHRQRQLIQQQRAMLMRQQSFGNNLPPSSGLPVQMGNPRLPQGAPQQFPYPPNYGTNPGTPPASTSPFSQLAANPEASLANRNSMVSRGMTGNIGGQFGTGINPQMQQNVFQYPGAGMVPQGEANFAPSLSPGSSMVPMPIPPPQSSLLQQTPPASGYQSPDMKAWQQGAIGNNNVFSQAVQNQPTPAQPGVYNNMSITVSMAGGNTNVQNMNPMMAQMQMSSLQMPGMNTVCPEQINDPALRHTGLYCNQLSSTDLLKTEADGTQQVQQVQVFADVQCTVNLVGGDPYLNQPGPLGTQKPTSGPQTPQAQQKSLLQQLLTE
# Chain of Mitogen-activated protein kinase 10 (P53779 whole entry): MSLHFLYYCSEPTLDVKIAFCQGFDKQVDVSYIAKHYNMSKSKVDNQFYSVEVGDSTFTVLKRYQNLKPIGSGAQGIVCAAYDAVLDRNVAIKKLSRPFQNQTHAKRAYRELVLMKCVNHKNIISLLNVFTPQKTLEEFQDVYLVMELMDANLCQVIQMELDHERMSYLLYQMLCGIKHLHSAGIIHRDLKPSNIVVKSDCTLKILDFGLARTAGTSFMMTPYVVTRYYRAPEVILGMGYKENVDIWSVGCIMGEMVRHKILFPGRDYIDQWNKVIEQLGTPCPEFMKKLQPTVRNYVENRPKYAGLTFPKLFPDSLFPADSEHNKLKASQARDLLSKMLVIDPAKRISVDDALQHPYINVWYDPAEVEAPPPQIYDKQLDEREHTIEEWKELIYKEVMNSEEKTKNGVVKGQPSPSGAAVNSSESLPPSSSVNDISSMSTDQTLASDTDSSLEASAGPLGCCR
# Chain of Glyceraldehyde-3-phosphate dehydrogenase (P04406 whole entry): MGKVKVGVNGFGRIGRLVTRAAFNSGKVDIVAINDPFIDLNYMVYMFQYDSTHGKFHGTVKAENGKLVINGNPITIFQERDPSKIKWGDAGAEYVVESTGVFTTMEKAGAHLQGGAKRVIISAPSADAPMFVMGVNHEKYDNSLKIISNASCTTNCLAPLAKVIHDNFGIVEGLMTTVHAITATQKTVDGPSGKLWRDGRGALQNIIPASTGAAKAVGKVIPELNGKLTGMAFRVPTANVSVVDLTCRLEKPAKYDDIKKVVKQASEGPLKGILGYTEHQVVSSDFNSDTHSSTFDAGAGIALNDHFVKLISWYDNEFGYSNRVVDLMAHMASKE
smiles,measurement,setting,value
CCn1cc(C(=O)NCc2ccc3c(c2)OCO3)c(=O)c2cc(F)c(N3CCN(C(=O)c4ccco4)CC3)cc21,EC50,[1],6.52 µM (active)
same,EC50,[2],> 150 µM (not active)
same,EC50,[3],20.8 µM (active)
same,IC50,[4],29.4 µM (inactive)
C[C@H]1CN(C2=C(Cl)C(=O)N(c3cccc(C(F)(F)F)c3)C2=O)CCN1,IC50,[5],> 50 µM (inconclusive)
Cc1ccccc1CC1(CO)CCCN(C(=O)CCC(=O)c2ccccc2)C1 (stereo not given),CC50,[6],28.5 µM (active)
same,EC50,[7],> 79.4 µM (not active)
same,EC50,[8],> 79.4 µM (not active)
same,EC50,[9],> 79.4 µM (not active)
CC1(C)CN(c2ccccc2)N(C(=O)c2ccc(F)cc2)C1=O,IC50,[10],0.837 µM (active)
same,AC50,[11],3.63 µM (active)
COc1ccccc1CNC(=O)c1cn(C)c2ccc(S(=O)(=O)N3CCCC3)cc2c1=O,IC50,[10],5.95 µM (active)
Oc1[nH]c2ccccc2c1/C=N/c1ccc2c(c1)OCCO2,IC50,[12],89.9 µM (not active)
O=C(NC1CCCC1)c1cccnc1N1CCCCCC1,IC50,[12],> 93.1 µM (not active)
same,AC50,[13],35.5 µM (inconclusive)
COc1cc(CN/C(C)=C(\C#N)C(N)=O)cc(OC)c1OC,IC50,[12],7.16 µM (active)
COc1cccc2sc(N3CCN(c4nc5ccccc5s4)CC3)nc12,EC50,[7],19.1 µM (not active)
same,EC50,[8],13.4 µM (not active)
same,EC50,[9],22.9 µM (not active)
Cc1ccc(N2C(=O)C(Cl)=C(N(C)C)C2=O)cc1,IC50,[5],> 50 µM (inconclusive)
CCC(C)(C(=O)NC1CCCC1)N(CC1CCCO1)C(=O)c1ccc2c(c1)OCO2 (stereo not given),AC50,[14],5.62 µM (inconclusive)
same,Ki,[15],> 66.7 µM (inactive)
same,AC50,[16],35.5 µM (inconclusive)
same,AC50,[17],39.8 µM (inconclusive)
COc1ccccc1C1C(C(=O)c2ccccc2)=C(O)C(=O)N1CCO (stereo not given),AC50,[14],39.8 µM (inconclusive)
same,Ki,[15],19.7 µM (inactive)
same,AC50,[17],0.794 µM (inconclusive)
same,AC50,[13],39.8 µM (inconclusive)
Cc1ccc(-n2c(C)cc(C(=O)COc3c(CO)cc(F)cc3CO)c2C)cc1C,EC50,[7],> 79.4 µM (not active)
same,EC50,[8],> 79.4 µM (not active)
same,EC50,[9],> 79.4 µM (not active)
same,EC50,[18],> 260 µM (inactive)
Oc1c(C(c2ccccc2)N2CCN(Cc3ccccc3)CC2)sc2ncnn12 (stereo not given),IC50,[19],> 100 µM (active)
COC(=O)c1[nH]c(C)c(C(=O)C2=C(O)C(=O)N(CCCN3CCOCC3)C2c2ccccn2)c1C (stereo not given),IC50,[20],> 100 µM (inactive)
same,Ki,[15],9.7 µM (active)
COc1ccc(C(C)=O)cc1COC(=O)c1c(C)noc1C,IC50,[12],39.8 µM (not active)
Cn1c(CN2CCOCC2)nc2cc(NC(=O)c3ccc(F)cc3)ccc21,IC50,[19],> 100 µM (active)
COc1ccc(C2(CNC(=O)/C=C\c3ccco3)CCCC2)cc1OC,EC50,[7],> 79.4 µM (not active)
same,EC50,[8],> 79.4 µM (not active)
same,EC50,[9],> 79.4 µM (not active)
COc1ccc(/C=N\NS(=O)(=O)c2ccc(Cl)cc2)cc1COc1ccccc1[N+](=O)[O-],IC50,[10],> 50 µM (not active)
O=C(CSc1nc(O)c2cnn(-c3ccc(F)cc3)c2n1)N1CCCCCC1,IC50,[10],> 50 µM (not active)
CCOC(=O)n1cc(-c2cnc(CNC(=O)C(C)(c3ccccc3)c3ccccc3)o2)c2ccccc21,EC50,[7],> 79.4 µM (not active)
same,EC50,[8],> 79.4 µM (not active)
same,EC50,[9],> 79.4 µM (not active)

# From ChEMBL document CHEMBL1201862, “PubChem BioAssay data set” (2004)
